In patent US11912675B1, “N'-(2-(5-(4-chlorophenyl)-1,3,4-oxadiazol-2-ylthio)acetoxy)-3,4-dimethoxybenzimidamide as an antimicrobial compound” (KING FAISAL UNIVERSITY, priority 2023, dated 2024):

Columns and labels:
Assay type in all cases: cell-based
[1] = test system: Bacillus cereus; assay: agar plate disc-diffusion, antibacterial, Bacillus cereus; settings: nutrient agar, 37° C., 48 h, DMSO control zone subtracted
Method: (§1) The agar plate disc-diffusion method was applied. […] The discs were then placed onto the surface of agar plates (nutrient agar for bacteria and Sabouraud's dextrose agar for fungi) seeded with the test organism. Each plate contained 15 mL of the agar medium, previously seeded with 0.2 mL of the broth culture of each organism pregrown for 18 h. The plates were incubated at 37° C. for 48 h, and 72 h for fungi. The inhibition zones was measured in mm. Discs impregnated with DMSO were used as a control, and its inhibition zone was subtracted from the tested compound actual inhibition zone.
(§2) The antibacterial activity was screened against gram positive bacteria namely Bacillus cereus and Staphylococcus aureus and gram-negative bacterial strains namely Pseudomonas aeruginosa and Escherichia coli, while the antifungal activity was screened against Aspergillus flavus and Chrysosporium keratinophilum as shown in Table 1 and 2.

[2] = test system: Staphylococcus aureus; assay: agar plate disc-diffusion, antibacterial, Staphylococcus aureus; settings: nutrient agar, 37° C., 48 h, DMSO control zone subtracted
Method: as §1, §2

[3] = test system: Pseudomonas aeruginosa; assay: agar plate disc-diffusion, antibacterial, Pseudomonas aeruginosa; settings: nutrient agar, 37° C., 48 h, DMSO control zone subtracted
Method: as §1, §2

[4] = test system: Escherichia coli; assay: agar plate disc-diffusion, antibacterial, Escherichia coli; settings: nutrient agar, 37° C., 48 h, DMSO control zone subtracted
Method: The agar plate disc-diffusion method was applied. Sterilized filter papers (6 mm in diameter) were wetted with 10 μL of a solution of N′-(2-(5-(4-chlorophenyl)-1,3,4-oxadiazol-2-ylthio)acetoxy)-3,4-dimethoxybenzimidamide (3) to be tested, containing 10 mg/mL in DMSO, and the discs were allowed to air dry. The discs were then placed onto the surface of agar plates (nutrient agar for bacteria and Sabouraud's dextrose agar for fungi) seeded with the test organism. Each plate contained 15 mL of the agar medium, previously seeded with 0.2 mL of the broth culture of each organism pregrown for 18 h. The plates were incubated at 37° C. for 48 h, and 72 h for fungi. The inhibition zones was measured in mm. Discs impregnated with DMSO were used as a control, and its inhibition zone was subtracted from the tested compound actual inhibition zone.
as §2

[5] = test system: Aspergillus flavus; assay: agar plate disc-diffusion, antifungal, Aspergillus flavus; settings: Sabouraud's dextrose agar, 72 h, DMSO control zone subtracted
Method: as §1, §2

[6] = test system: Chrysosporium keratinophilum; assay: agar plate disc-diffusion, antifungal, Chrysosporium keratinophilum; settings: Sabouraud's dextrose agar, 72 h, DMSO control zone subtracted
Method: as §1, §2

[7] = B = concentration of comp. = 30,000 μL
[8] = C = concentration of comp. = 50,000 μL
[9] = A = concentration of comp. = 10,000 μg/mL
[10] = A = concentration of comp. = 10,000 μL

COc1ccc(/C(N)=N/OC(=O)CSc2nnc(-c3ccc(Cl)cc3)o2)cc1OC [compound 3, N′-(2-(5-(4-chlorophenyl)-1,3,4-oxadiazol-2-ylthio)acetoxy)-3,4-dimethoxybenzimidamide]
inhibition zone, Bacillus Cereus, A ([1]; A =): 27 mm
inhibition zone, Bacillus Cereus, B [1, 7]: 30 mm
inhibition zone, Bacillus Cereus, C [1, 8]: 40 mm
inhibition zone, Staphylococcus aureus, A [2, 9]: 17 mm
inhibition zone, Staphylococcus aureus, B [2, 7]: 22 mm
inhibition zone, Staphylococcus aureus, C [2, 8]: 37 mm
inhibition zone, Pseudomonas aeruginosa, A [3, 10]: 25 mm
inhibition zone, Pseudomonas aeruginosa, B [3, 7]: 29 mm
inhibition zone, Pseudomonas aeruginosa, C [3, 8]: 41 mm
inhibition zone, Escherichia coli, A [4, 9]: 28 mm
inhibition zone, Escherichia coli, B [4, 7]: 31 mm
inhibition zone, Escherichia coli, C [4, 8]: 48 mm
inhibition zone, Aspergillus flavus, A [5, 10]: 22 mm
inhibition zone, Aspergillus flavus, B [5, 7]: 26 mm
inhibition zone, Aspergillus flavus, C [5, 8]: 37 mm
inhibition zone, Chrysosporium keratinophilum, A ([6]; A =): 26 mm
inhibition zone, Chrysosporium keratinophilum, B [6, 7]: 27 mm
inhibition zone, Chrysosporium keratinophilum, C [6, 8]: 40 mm
